Paper PMC8168755, “Discovery of new VEGFR-2 inhibitors based on bis([1, 2, 4]triazolo)[4,3-a:3',4'-c]quinoxaline derivatives as anticancer agents and apoptosis inducers” (Journal of Enzyme Inhibition and Medicinal Chemistry, 2021)
Read-outs that look alike come from different tables or passages of the source.

Assays:
[1] = tested on: MCF-7 and HepG2 cell lines; assay: In vitro anti-proliferative activity (MTT assay), stated over both cell lines; assay type: cell-based; settings: Homo sapiens, read-out: IC50 values ranging over the two cell lines (MCF-7 and HepG2)
VEGFR-2 = VEGFR-2 (Homo sapiens, UniProt P35968); assay: biochemical
Experimental: All the synthesised compounds were tested for their inhibitory activity against VEGFR-2 as described in Supplementary data[75].
Experimental of biological testing […]
2. In vitro VEGFR-2 kinase assay
All the synthesized compounds were tested for its inhibitory activity against VEGFR-2. Human VEGFR-2 ELISA kit (Enzyme-Linked Immunosorbent Assay) was utilized in this test. At first, specific antibody for VEGFR-2 was seeded on a 96-well plate and 100 μL of the standard solution or the tested compound was added, all were incubated at room temperature for 2.5 h. Then washed, 100 μL of the prepared biotin antibody was added, then incubated at room temperature for additional 1 h. and washed. Then, 100 μL of streptavidin solution was added and incubated for 45 min. at room temperature. Washed again, 100 μL of TMB Substrate reagent was added and incubated for 30 min. at room temperature. 50 μL of the stop solution was added, then read at 450 […]
nm immediately. […]

MCF-7 = assay: In vitro anti-proliferative activity (MTT assay), MCF-7; assay type: cell-based, human; settings: read-out: IC50 (µM) MCF-7
Experimental: (§1) All newly prepared compounds were assessed for their in vitro cytotoxic efficiencies via standard MTT method, against breast cancer (MCF-7) and hepatocellular carcinoma (HepG2) cell lines.
(§2) MTT assay protocol[55–57]^,[74] was applied as described in Supplementary data.
(§3) Experimental of biological testing
(§4) 1. In vitro anti-proliferative activity
(§5) the synthesized compounds.
(§6) oC for 48 h under 5% CO2.
(§7) the synthesized compounds and incubated for 24 h.

HepG2 = assay: In vitro anti-proliferative activity (MTT assay), HepG2; assay type: cell-based, human; settings: read-out: IC50 (µM) HepG2
Experimental: as §1, §2, §3, §4, §5, §6, §7

Bcl-2 = settings: HepG2, 24 h
BAX = settings: HepG2, 24 h
[2] = MTT, range stated for a group of compounds and both cell lines
[3] = mean ± SD of three separate experiments
[4] = Homo sapiens, MCF7, MTT, 24 h treatment, mean ± SD of three separate experiments
[5] = Homo sapiens, HepG2, MTT, 24 h treatment, mean ± SD of three separate experiments
[6] = control 1.00, mean ± SEM of three experiments
[7] = MTT, 24 h treatment, mean ± SD of three separate experiments

Chain of VEGFR-2 (P35968 20-1356): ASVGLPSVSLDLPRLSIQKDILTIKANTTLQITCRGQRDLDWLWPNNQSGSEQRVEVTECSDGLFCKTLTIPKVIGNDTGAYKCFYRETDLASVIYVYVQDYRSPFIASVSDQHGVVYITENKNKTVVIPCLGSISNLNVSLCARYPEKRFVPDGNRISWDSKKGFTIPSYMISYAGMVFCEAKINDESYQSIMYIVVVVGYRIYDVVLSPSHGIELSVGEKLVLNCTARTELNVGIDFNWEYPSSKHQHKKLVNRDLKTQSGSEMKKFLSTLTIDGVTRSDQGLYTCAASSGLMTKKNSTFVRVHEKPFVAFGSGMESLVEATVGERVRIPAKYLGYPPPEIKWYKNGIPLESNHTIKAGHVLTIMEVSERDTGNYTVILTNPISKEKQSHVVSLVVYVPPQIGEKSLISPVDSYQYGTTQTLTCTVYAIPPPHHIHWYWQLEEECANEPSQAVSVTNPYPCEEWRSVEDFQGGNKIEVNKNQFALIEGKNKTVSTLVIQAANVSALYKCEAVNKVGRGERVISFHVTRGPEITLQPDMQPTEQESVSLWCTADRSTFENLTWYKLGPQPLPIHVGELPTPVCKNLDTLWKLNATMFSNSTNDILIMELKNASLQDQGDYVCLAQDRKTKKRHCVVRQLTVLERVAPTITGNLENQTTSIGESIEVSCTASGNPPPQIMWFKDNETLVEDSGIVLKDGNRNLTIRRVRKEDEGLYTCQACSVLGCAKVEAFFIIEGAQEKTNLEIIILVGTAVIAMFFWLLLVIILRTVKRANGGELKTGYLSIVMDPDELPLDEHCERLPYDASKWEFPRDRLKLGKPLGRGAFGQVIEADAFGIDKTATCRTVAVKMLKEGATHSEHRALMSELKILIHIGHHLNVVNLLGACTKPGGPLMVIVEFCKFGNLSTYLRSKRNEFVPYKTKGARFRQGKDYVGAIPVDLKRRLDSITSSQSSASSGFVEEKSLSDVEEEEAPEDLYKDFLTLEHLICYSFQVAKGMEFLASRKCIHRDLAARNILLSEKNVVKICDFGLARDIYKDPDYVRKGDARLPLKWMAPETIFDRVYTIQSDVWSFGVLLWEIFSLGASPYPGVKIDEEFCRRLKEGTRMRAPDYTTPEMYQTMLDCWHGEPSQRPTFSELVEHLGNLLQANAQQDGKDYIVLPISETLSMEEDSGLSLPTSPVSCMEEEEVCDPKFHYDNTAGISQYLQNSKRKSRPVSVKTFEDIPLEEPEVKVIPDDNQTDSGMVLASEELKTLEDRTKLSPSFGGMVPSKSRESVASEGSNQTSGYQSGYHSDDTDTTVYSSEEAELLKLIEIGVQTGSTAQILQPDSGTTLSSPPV

| Compound | IC50 [1, 2] | IC50 (VEGFR-2; [3]) | IC50 (MCF-7; [4]) | IC50 (HepG2; [5]) | other results |
| --- | --- | --- | --- | --- | --- |
| O=C(CSc1nnc2c3nncn3c3ccccc3n12)Nc1ccc(C(=O)NNC(=O)c2cccc(Cl)c2)cc1 [Compound 24b, 2-(Bis([1,2, 4]triazolo)[4,3-a:3',4'-c]quinoxalin-3-ylthio)-N-(4–(2-(3-chlorobenzoyl)hydrazine-1-carbonyl)phenyl)acetamide] | 15.2 to 48.3 µM | 22.3 ± 1.8 nM | 42.7 ± 3.7 µM | 30.3 ± 2.7 µM | – |
| O=C(CSc1nnc2c3nncn3c3ccccc3n12)Nc1ccc(C(=O)Nc2ccc(O)cc2)cc1 [Compound 23m, 4-(2-(Bis([1,2, 4]triazolo)[4,3-a:3′,4′-c]uinoxaline-3-ylthio)acetamido)-N-(4-hydroxyphenyl)benzamide] | 15.2 to 48.3 µM | 9.7 ± 0.7 nM | 21.6 ± 1.7 µM | 15.2 ± 1.2 µM | – |
| O=C(CSc1nnc2c3nncn3c3ccccc3n12)Nc1ccc(C(=O)NNC(=O)c2ccccc2O)cc1 [Compound 24c, 2-(Bis([1,2, 4]triazolo)[4,3-a:3',4'-c]quinoxalin-3-ylthio)-N-(4–(2-(2-hydroxybenzoyl)hydrazine-1-carbonyl)phenyl)acetamide] | 15.2 to 48.3 µM | 20.7 ± 1.6 nM | 40.7 ± 3.7 µM | 29.8 ± 2.1 µM | – |
| CC(=O)c1ccc(NC(=O)c2ccc(NC(=O)CSc3nnc4c5nncn5c5ccccc5n34)cc2)cc1 [Compound 23g, N-(4-Acetylphenyl)-4-(2-(bis([1,2, 4]triazolo)[4,3-a:3',4'-c]quinoxalin-3-ylthio)acetamido)benzamide] | – | 62.7 ± 5.7 nM | 81.3 ± 7.4 µM | 80.7 ± 7.1 µM | – |
| O=C(CSc1nnc2c3nncn3c3ccccc3n12)Nc1ccc(C(=O)NC2CCCCC2)cc1 [Compound 23f, 4-(2-(Bis([1,2, 4]triazolo)[4,3-a:3',4'-c]quinoxalin-3-ylthio)acetamido)-N-cyclohexylbenzamide] | – | 39.5 ± 2.9 nM | 74.1 ± 6.7 µM | 70.4 ± 5.8 µM | – |
| O=C(CSc1nnc2c3nncn3c3ccccc3n12)Nc1ccc(C(=O)Nc2ccc(F)cc2)cc1 [Compound 23k, 4-(2-(Bis([1,2, 4]triazolo)[4,3-a:3′,4′-c]uinoxaline-3-ylthio)acetamido)-N-(4-fluorophenyl)benzamide] | – | 49.6 ± 4.1 nM | 68.2 ± 5.2 µM | 71.8 ± 6.3 µM | – |
| CCNC(=O)c1ccc(NC(=O)CSc2nnc3c4nncn4c4ccccc4n23)cc1 [Compound 23a, 4-(2-(Bis([1,2, 4]triazolo)[4,3-a:3',4'-c]quinoxalin-3-ylthio)acetamido)-N-ethylbenzamide] | 6.4 to 19.4 µM | 7.1 ± 0.4 nM | 17.7 ± 1.5 µM | 11.3 ± 0.9 µM | – |
| CC(C)(C)NC(=O)c1ccc(NC(=O)CSc2nnc3c4nncn4c4ccccc4n23)cc1 [Compound 23d, 4-(2-(Bis([1,2, 4]triazolo)[4,3-a:3',4'-c]quinoxalin-3-ylthio)acetamido)-N-(tert-butyl)benzamide] | 15.2 to 48.3 µM | 11.8 ± 0.8 nM | 21.6 ± 1.8 µM | 17.5 ± 1.2 µM | – |
| CCC(C)NC(=O)c1ccc(NC(=O)CSc2nnc3c4nncn4c4ccccc4n23)cc1 (stereo not drawn) [Compound 23c, 4-(2-(Bis([1,2, 4]triazolo)[4,3-a:3',4'-c]quinoxalin-3-ylthio)acetamido)-N-(sec-butyl)benzamide] | – | 47.1 ± 4.2 nM | 76.2 ± 6.9 µM | 69.8 ± 5.9 µM | – |
| O=C(CSc1nnc2c3nncn3c3ccccc3n12)Nc1ccc(C(=O)Nc2ccc([N+](=O)[O-])cc2O)cc1 [Compound 23n, 4-(2-(Bis([1,2, 4]triazolo)[4,3-a:3′,4′-c]uinoxaline-3-ylthio)acetamido)-N-(2-hydroxy-4-nitrophenyl)benzamide] | 6.4 to 19.4 µM | 7.4 ± 0.5 nM | 16.5 ± 1.3 µM | 12.7 ± 0.9 µM | – |
| O=C(CSc1nnc2c3nncn3c3ccccc3n12)Nc1ccc(C(=O)Nc2cc(Cl)ccc2Cl)cc1 [Compound 23j, 4-(2-(Bis([1,2, 4]triazolo)[4,3-a:3′,4′-c]uinoxaline-3-ylthio)acetamido)-N-(2,5-dichlorophenyl)benzamide] | – | – | – | – | Decrease of Bcl-2 level (Bcl-2; compared to control cells): 2.63 fold; Protein expression (normalized to β-actin) Bcl-2 (Bcl-2; [6]): 0.38 ± 0.03; Increase of BAX level (BAX; compared to control cells): 1.65 fold; Protein expression (normalized to β-actin) BAX (BAX; [6]): 1.65 ± 0.06; IC50 (VEGFR-2): 3.7 ± 0.2 nM; IC50 (MCF-7; [7]): 10.3 ± 0.8 µM; IC50 (HepG2; [7]): 6.4 ± 0.5 µM |
| O=C(CSc1nnc2c3nncn3c3ccccc3n12)Nc1ccc(C(=O)Nc2cccc(Cl)c2)cc1 [Compound 23h, 4-(2-(Bis([1,2, 4]triazolo)[4,3-a:3',4'-c]quinoxalin-3-ylthio)acetamido)-N-(3-chlorophenyl)benzamide] | – | – | – | – | IC50 [1]: 15.2 to 48.3 µM; IC50 (VEGFR-2): 11.7 ± 0.9 nM; IC50 (MCF-7; Homo sapiens, MCF7, 24 h): 37.2 ± 3.2 µM; IC50 (HepG2; Homo sapiens, HepG2, 24 h): 22.3 ± 1.8 µM |
| O=C(CSc1nnc2c3nncn3c3ccccc3n12)Nc1ccc(C(=O)NNC(=O)c2ccccc2Cl)cc1 [Compound 24a, 2-(Bis([1,2, 4]triazolo)[4,3-a:3',4'-c]quinoxalin-3-ylthio)-N-(4–(2-(2-chlorobenzoyl)hydrazine-1-carbonyl)phenyl)acetamide] | 15.2 to 48.3 µM | 23.9 ± 1.9 nM | 48.3 ± 3.9 µM | 34.5 ± 2.8 µM | – |
| O=C(CSc1nnc2c3nncn3c3ccccc3n12)Nc1ccc(C(=O)Nc2ccc(Cl)cc2)cc1 [Compound 23i, 4-(2-(Bis([1,2, 4]triazolo)[4,3-a:3',4'-c]quinoxalin-3-ylthio)acetamido)-N-(4-chlorophenyl)benzamide] | – | 9.4 ± 0.7 nM | – | – | – |
| CCCCNC(=O)c1ccc(NC(=O)CSc2nnc3c4nncn4c4ccccc4n23)cc1 [Compound 23b, 4-(2-(Bis([1,2, 4]triazolo)[4,3-a:3',4'-c]quinoxalin-3-ylthio)acetamido)-N-butylbenzamide] | – | 71.6 ± 5.2 nM | 78.9 ± 6.1 µM | 69.1 ± 6.1 µM | – |
| CNC(=O)c1cc(Oc2ccc(NC(=O)Nc3ccc(Cl)c(C(F)(F)F)c3)cc2)ccn1 [Sorafenib, sorafenib, reference compound] | – | – | 3.51 ± 0.22 µM | 2.17 ± 0.14 µM | – |
| O=C(CSc1nnc2c3nncn3c3ccccc3n12)Nc1ccc(C(=O)NC2CCCC2)cc1 [Compound 23e, 4-(2-(Bis([1,2, 4]triazolo)[4,3-a:3',4'-c]quinoxalin-3-ylthio)acetamido)-N-cyclopentylbenzamide] | – | 39.8 ± 3.1 nM | 78.3 ± 6.5 µM | 74.8 ± 6.9 µM | – |
| O=C(CSc1nnc2c3nncn3c3ccccc3n12)Nc1ccc(C(=O)Nc2ccccc2O)cc1 [Compound 23l, 4-(2-(Bis([1,2, 4]triazolo)[4,3-a:3′,4′-c]uinoxaline-3-ylthio)acetamido)-N-(2-hydroxyphenyl)benzamide] | – | 5.8 ± 0.3 nM | – | – | IC50 (MCF-7; [7]): 19.4 ± 1.1 µM; IC50 (HepG2; [7]): 11.3 ± 0.7 µM |
